Where two headings read alike, the source gives them in different places. Marks after values point to notes of the source that are not given here.
Experiments:
[1] = Acute toxicity, single intraperitoneal injection in male mice; type: in vivo; settings: male, white outbred, mouse, in vivo, ip, male mice 18-24 g; single i.p.
Experimental: (§1) Tables 2, 2.1 and 2.2 present the results of acute toxicity studies of the Compounds with active substance content in at least white outbred male mice (body weight 18-24 g) and white outbred rats 30-35 days of age, of both sexes with a single dose. Calculation of toxic doses was made using the Wilcoxon and Litchfield method. Observations were made over 24 hours and 14 days after a single dose.
(§2) LD50 in rat pups after intragastric administration was not found. Intragastric administration to rat pups of doses of more than 1000 mg/kg is technically impossible due to the small volume of the stomach (Table 2.2).

rabbits = assay: Transcallosal stimulation induced potential (TSIP); type: in vivo; settings: for effect on TSIP components (in words): 25-300 mg/kg; for TSIP P1 + N1 amplitude / TSIP component N1 amplitude / TSIP component P1 amplitude / TSIP component P2 amplitude: Piracetam 300-500, Pyritinol 50-150, Phenotropil 25-300 mg/kg
mice [2] = assay: Benzedrine-induced stimulation of orientation-locomotor activity; type: in vivo; settings: mice; Benzedrine 3.0 mg/kg alone
Text: In regard to influencing the effects of Benzedrine, Phenotropil also can provide, depending on the dose, the diametrically opposite activity when in combination with psychostimulants. This fact must be taken into account in combined use of various pharmacological agents.

mice [3] = assay: Duration of swimming in cold (2° C.) and normal (25° C.) water; type: in vivo; settings: single dose 2.5 mg/kg i.p.
Experimental: Stimulatory effect on the duration of swimming in cold (2° C.) and normal (25° C.) water (Table 8.1-8.1.1) of Phenotropil (25 and 50 mg/kg) compared with the control (distilled water) and Benzedrine (2.5 mg/kg) was studied in white outbred male mice (18-26 g) compared to control (distilled water) when intraperitoneally administered, 60 min after the administration and with a course administration for 4 weeks administration on day 28 (Table 8.1.2). […] At normal temperature of water, the effect of Benzedrine was not modified and stayed at 34%.
The advantage of psychomodulator Phenotropil is obvious both with the single dose and the course use, by the effect on physical performance and stability of the body, both in normal and more adverse temperature conditions.

mice [4] = assay: Acute toxicity, single intraperitoneal injection in male mice; type: in vivo; settings: male mice 18-24 g; single i.p.
Experimental: as §1, §2

rats [5] = assay: Acute toxicity, single intragastric administration in immature rats; type: in vivo; settings: single intragastric 800 mg/kg
Experimental: as §1, §2

mice [6] = settings: mice; product of SU No 797219; cited from earlier work
mice [7] = assay: Cross maze exploratory behavior, HEF and LEF mice; type: in vivo; settings: i.p. once a day 5 days, Compounds 1 and 4 100 mg/kg, Piracetam 200 mg/kg
mice [8] = assay: Hypobaric hypoxia in pressure chamber, adult mice; type: in vivo; settings: for Duration of life: adult mice, hypobaric hypoxia
rats [9] = assay: 14-day immobilization in antiorthostatic position (Ds), thymus, spleen, adrenal mass ratios Kt; type: in vivo; settings: Ds-conditions; for S/A: spleen/adrenals ratio (mg/100 g baseline body weight); for S/T: spleen/thymus ratio (mg/100 g baseline body weight); for T/A: thymus/adrenals ratio (mg/100 g baseline body weight)
mice [10] = assay: Electric extremities pain stimulation, thresholds TA, TFC, TF; type: in vivo
mice [11] = assay: Apomorphine verticalization (positive symptoms of schizophrenia); type: in vivo; settings: mice, apomorphine 2 mg/kg s.c.
Experimental: (§3) Studies have been conducted on white outbred male mice (18-24 g), in comparison with the olanzapine (Zyprexa) with intraperitoneal injection.
In the model of positive symptoms of schizophrenia associated with hyperactivation of the dopamine systems, which allows to identify the ability of substances to block the dopaminergic transmission in the mesolimbic system of the brain, Phenotropil (100, 200, and 300 mg/kg) reduced the apomorphine-induced (2 mg/kg subcutaneously) verticalization intensity scores (Table 4) by 45%, by 2.0 and 2.6 times, respectively.

mice [12] = assay: Tremor caused by arecoline; type: in vivo
Text: as §3

mice [13] = assay: Open field test; type: in vivo
Experimental: Study of the effect of Phenotropil (100, 200, 300 mg/kg) on motor activity and exploratory behavior by the open field test on mice (16-24 g) in comparison with olanzapine (1 mg/kg) is shown in Tables 5-5.4. Olanzapine at higher doses has sedative activity, so for comparison with Phenotropil, the drug was used only at a dose of 1 mg/kg. The drugs and distilled water to control groups were injected intraperitoneally 40 minutes prior to the study. […] This indicates the ability of the drug to reversibility, unlike olanzapine.

Structure (SMILES): NC(=O)CN1CC(c2ccccc2)CC1=O (racemic) [Compound 2, (RS)-2-(2-oxo-4-phenylpyrrolidin-1-yl)acetamide]
- LD50 at 14 days [1]: 1000 mg/kg
- effect on TSIP components (in words) (rabbits): less pronounced than that of Compounds 1 and 3
- TSIP P1 + N1 amplitude (rabbits): ± (biphasic effect, less than 50% but not less than 20%)
- TSIP component N1 amplitude (rabbits): ± (biphasic effect, less than 50% but not less than 20%)
- TSIP component P1 amplitude (rabbits): ± (biphasic effect, less than 50% but not less than 20%)
- TSIP component P2 amplitude (rabbits): ± (biphasic effect, less than 50% but not less than 20%)

Structure (SMILES): CC(N)Cc1ccccc1 (stereo not drawn) [Benzedrine, reference compound]
- Number of pulses for 3 min. (mice [2]): 84.3 ± 7.9
- Number of stand-ups for 3 min. (mice [2]): 14.2 ± 1.8
- Duration of swimming (mice [3]): 160.70 ± 11.75 min
- Duration of swimming (mice [3]; water 2° C.): 1.60 ± 0.2 min

Structure (SMILES): NC(=O)CN1CC(c2ccccc2)CC1=O (racemic) [Compound 3, (RS)-2-(2-oxo-4-phenylpyrrolidin-1-yl)acetamide]
- LD50 (mice [4]): 1050 (984.6-1115.3) mg/kg
- Dead/total number (rats [5]; rats 30-35 days): 0/10
- % of dead rat pups (rats [5]): 0%

Structure (SMILES): NC(=O)CN1CC(c2ccccc2)CC1=O (stereo not drawn) [N-carbamoylmethyl-4-phenyl-2-pyrrolidone, reference compound]
- LD50 (mice [6]): 831 mg/kg

Structure (SMILES): NC(=O)CN1CCCC1=O [Piracetam]
- Kt (trigger transmission coefficient) (mice [7]; HEF mice): 3.1 ± 0.45
- Number of compartment explorations (mice [7]; HEF mice): 4.2 ± 0.7 //
- Number of surveillances (mice [7]; HEF mice): 1.9 ± 0.2
- Kt (trigger transmission coefficient) (mice [7]; LEF mice): 2.4 ± 0.5
- Number of compartment explorations (mice [7]; LEF mice): 5.3 ± 0.8 //
- Number of surveillances (mice [7]; LEF mice): 2.2 ± 0.2
- Kt (trigger transmission coefficient) (mice [7]; population as a whole): 1.3 ± 0.45
- Number of compartment explorations (mice [7]; population as a whole): 4.6 ± 0.7 //
- Number of surveillances (mice [7]; population as a whole): 2.0 ± 0.2
- TSIP P1 + N1 amplitude (rabbits): ++ (amplitude increase by 30 to 50%)
- TSIP component N1 amplitude (rabbits): ++ (amplitude increase by 30 to 50%)
- TSIP component P1 amplitude (rabbits): +++ (amplitude increase by more than 50%)
- TSIP component P2 amplitude (rabbits): + (amplitude increase by less than 50%)
- shortening of survival time vs control (mice [8]; 600 mg/kg): 35.0%
- increase of survival time vs control (mice [8]; 900-2000 mg/kg): 78.0%
- Duration of life (mice [8]; 600 mg/kg): 1.5 ± 0.6 min
- Duration of life (mice [8]; 900 mg/kg): 4.0 ± 0.6 min
- Duration of life (mice [8]; 2000 mg/kg): 4.2 ± 0.4 min
- S/A (rats [9]; 200 mg/kg): 12.1 ± 1.5
- S/T (rats [9]; 200 mg/kg): 7.4 ± 0.7
- T/A (rats [9]; 200 mg/kg): 1.6 ± 0.2
- S/A (rats [9]; 400 mg/kg): 10.8 ± 1.3
- S/T (rats [9]; 400 mg/kg): 7.2 ± 0.4
- T/A (rats [9]; 400 mg/kg): 1.5 ± 0.1
- S/A (rats [9]; 600 mg/kg): 10.2 ± 0.1
- S/T (rats [9]; 600 mg/kg): 4.0 ± 0.1
- T/A (rats [9]; 600 mg/kg): 2.6 ± 0.1
- decrease in the aggression threshold (TF) (mice [10]; 100 mg/kg): 11.3%
- lowering of threshold of emotional reactivity (TFC) (mice [10]; 100 mg/kg): 23.5%
- reduction of the pain threshold (TA) (mice [10]; 100 mg/kg): 43.6%
- TA (threshold of attention) vs control (mice [10]; 100 mg/kg i.p.): −43.6 * %
- TF (threshold of aggression) vs control (mice [10]; 100 mg/kg i.p.): −11.3 * %
- TFC (threshold of first cheep) vs control (mice [10]; 100 mg/kg i.p.): −23.5 * %
- lowering of threshold of emotional reactivity (TFC) (mice [10]; 200 mg/kg): 47.0%
- reduction of the pain threshold (TA) (mice [10]; 200 mg/kg): 48.1%
- TA (threshold of attention) vs control (mice [10]; 200 mg/kg i.p.): −48.1 * %
- TFC (threshold of first cheep) vs control (mice [10]; 200 mg/kg i.p.): −47.0 * %
- TF (threshold of aggression) vs control (mice [10]; 200 mg/kg i.p., 200 mg/kg): −15.7 * %
- TF (threshold of aggression) vs control (mice [10]; 200 mg/kg i.p., listed as Pyracetam, 200 mg/kg): 25.7%
- reduction of the pain threshold (TA) (mice [10]; 300 mg/k (so in the source)): 19.9%
- increase of aggression threshold (TF) (mice [10]; 300 mg/kg (so in the source)): 7.4%
- TA (threshold of attention) vs control (mice [10]; 400 mg/kg i.p.): −20.0 * %
- TF (threshold of aggression) vs control (mice [10]; 400 mg/kg i.p.): −7.4%
- TFC (threshold of first cheep) vs control (mice [10]; 400 mg/kg i.p.): +5.0%

Structure (SMILES): Cc1cc2c(s1)Nc1ccccc1N=C2N1CCN(C)CC1 [Olanzapine, reference compound]
- Intensity of verticalization in points (mice [11]; 1.0 mg/kg i.p.): 36 ± 8.7 points
- Intensity of verticalization in points (mice [11]; 10 mg/kg i.p.): 16.4 ± 8.4*^ points
- reduction of duration of tremor (mice [12]; 1 mg/kg): 57%
- Duration of tremor (mice [12]; mice, arecoline 25 mg/kg, 1.0 mg/kg): 178 ± 28 s
- effect on number of explorations compared to the control (mice [13]; 1 mg/kg): no effect
- increase of number of washes during 1 and 2 minutes (mice [13]; 1 mg/kg): 150%
- increase of number of washes in total (mice [13]; 1 mg/kg): 200%
- reduction of number of rearings (mice [13]; 1 mg/kg): 47%
- reduction of number of visits to the center, total index (mice [13]; 1 mg/kg): 39%
- reduction of overall run distance (mice [13]; 1 mg/kg): 36%
- Distance covered during 1st min (horizontal motor activity) (mice [13]; mice, 1 mg/kg i.p.): 8.3 ± 1.6
- Distance during 2nd min (horizontal motor activity) (mice [13]; mice, 1 mg/kg i.p.): 8.8 ± 0.8
- Distance during 3rd min (horizontal motor activity) (mice [13]; mice, 1 mg/kg i.p.): 10.2 ± 0.9
- Explorations during 2nd min (mice [13]; mice, 1 mg/kg i.p.): 0.5 ± 0.2^
- Explorations during 3rd min (mice [13]; mice, 1 mg/kg i.p.): 1.0 ± 0.3
- Number of explorations (holes) during 1st min (mice [13]; mice, 1 mg/kg i.p.): 0.7 ± 0.2^
- Number of washings during 1st min (mice [13]; mice, 1 mg/kg i.p.): 0.5 ± 0.2
- Total distance at 3 min (horizontal motor activity) (mice [13]; mice, 1 mg/kg i.p.): 27.3 ± 2.6
- Total number of explorations at 3 min (mice [13]; mice, 1 mg/kg i.p.): 2.2 ± 0.4^
- Total number of visits to the center at 3 min (mice [13]; mice, 1 mg/kg i.p.): 0.7 ± 0.3
- Total number of washings at 3 min (mice [13]; mice, 1 mg/kg i.p.): 1.2 ± 0.4
- Visits to the center during 1st min (mice [13]; mice, 1 mg/kg i.p.): 0 ± 0
- Visits to the center during 2nd min (mice [13]; mice, 1 mg/kg i.p.): 0.5 ± 0.2
- Visits to the center during 3rd min (mice [13]; mice, 1 mg/kg i.p.): 0.2 ± 0.2
- Washings during 2nd min (mice [13]; mice, 1 mg/kg i.p.): 0.5 ± 0.2
- Washings during 3rd min (mice [13]; mice, 1 mg/kg i.p.): 0.2 ± 0.2
- vertical motor activity, 1st min (Distance covered) (mice [13]; mice, 1 mg/kg i.p.): 0.8 ± 0.3
- vertical motor activity, 2nd min (mice [13]; mice, 1 mg/kg i.p.): 0.3 ± 0.2
- vertical motor activity, 3rd min (mice [13]; mice, 1 mg/kg i.p.): 0.5 ± 0.2
- vertical motor activity, total at 3 min (mice [13]; mice, 1 mg/kg i.p.): 1.7 ± 0.4

Structure (SMILES): NC(=O)CN1CC(c2ccccc2)CC1=O (racemic) [Compound 4, (RS)-2-(2-oxo-4-phenylpyrrolidin-1-yl)acetamide]
- LD50 (mice [4]): 904 mg/kg
- Kt (trigger transmission coefficient) (mice [7]; HEF mice): 3.9 ± 0.45
- Number of compartment explorations (mice [7]; HEF mice): 6.5 ± 0.7 //
- Number of surveillances (mice [7]; HEF mice): 1.6 ± 0.2
- Kt (trigger transmission coefficient) (mice [7]; LEF mice): 3.9 ± 0.4
- Number of compartment explorations (mice [7]; LEF mice): 7.0 ± 0.6 //
- Number of surveillances (mice [7]; LEF mice): 1.8 ± 0.2
- Kt (trigger transmission coefficient) (mice [7]; population as a whole): 3.9 ± 0.45
- Number of compartment explorations (mice [7]; population as a whole): 6.7 ± 0.7 //
- Number of surveillances (mice [7]; population as a whole): 1.7 ± 0.2
- effect on TSIP components (in words) (rabbits): no significant difference from the saline treated control

— patent US20140315972A1, “RS)-2-(2-oxo-4-phenylpyrrolidin-1-yl)acetamide compound having modulatory activity with a commensurate effect, pharmaceutical substance (variants) and its application, composition (variants) thereof” (priority 2011, published 2014)
